Data from ChEMBL document CHEMBL1134352, “Perspectives in animal health: old targets and new opportunities” (J Med Chem, 2001).
Converted amounts (≈) assume the structure as drawn.

What was measured:
[1] = Acute toxicity in mice was determined; assay type: organism-based; conditions: mouse, in vivo
Canis familiaris [2] = species: Canis familiaris; assay: Flea efficacy in dog; assay type: functional, Canis lupus familiaris
[3] = Lethal dose in dog was determined; assay type: toxicity, organism-based, Canis lupus familiaris; conditions: in vivo
[4] = Lethal dose in mouse was determined; assay type: toxicity, organism-based; conditions: in vivo
[5] = target: AF2 neuropeptide receptor; assay: Compound was evaluated for inhibition of binding to Ascaris suum AF2 neuropeptide receptor
Mus musculus = assay: Lethality in mouse, by administering the compound at 200 mg/kg; decreased toxicity; assay type: functional, organism-based; parameters: dose 200 mg/kg
Felis catus = assay: Percent reduction of fleas on cats by topical application for 1 week; assay type: functional
[6] = Oral bioavailability in dog; assay type: ADME, organism-based, Canis lupus familiaris; conditions: in vivo
Canis familiaris [7] = assay: In vivo reduction of flea infestation was determined after an oral administration of 15 mg/kg in dog challenged with 100 fleas at day 8; assay type: functional, Canis lupus familiaris
Canis familiaris [8] = assay: In vivo reduction of flea infestation was determined after an oral administration of 15 mg/kg in dog challenged with 100 fleas at day 4; assay type: functional, Canis lupus familiaris
[9] = Lethal concentration of compound was determined against fleas; conditions: pulicinae
Canis familiaris [10] = assay: In vivo reduction of flea infestation was determined after an oral administration of 15 mg/kg in dog challenged with 100 fleas at day 0; assay type: functional, Canis lupus familiaris
Canis familiaris [11] = assay: In vivo reduction of flea infestation was determined after an oral administration of 15 mg/kg in dog challenged with 100 fleas at day 6; assay type: functional, Canis lupus familiaris
Canis familiaris [12] = species: Canis familiaris; assay: Minimum dose that cause toxicity in dog; assay type: functional, Canis lupus familiaris
Canis familiaris [13] = species: Canis familiaris; assay: Flea efficacy in dog
Equus caballus = assay: Compound was evaluated for gastric acid suppression on intravenous administration of a single dose up to 7 hr; assay type: functional, Stomach

Compound: CO[C@H]1C[C@H](O[C@H]2[C@H](C)O[C@@H](OC3/C(C)=C/CC4C[C@@H](C[C@]5(C=C[C@H](C)[C@@H](C(C)C)O5)O4)OC(=O)[C@@H]4C=C(C)[C@@H](O)[C@H]5OC/C(=C\C=C\[C@@H]3C)[C@]54O)C[C@@H]2OC)O[C@@H](C)[C@@H]1O (some centres not stated)
- LD50 [1]: 160 mg/kg

Compound: C=C(C)[C@H]1C(=O)c2c3c(cc4c5c(n1c24)[C@@]1(C)C(CC[C@H]2[C@](C)(/C=C/C=C(\C)C(=O)N(C)CC)[C@@H](O)CC[C@@]21C)C5)C1=CC(C)(C)OC(C)(C)C1[C@@H]3O (some centres not stated)
- Efficacy (Canis familiaris [2]): 0.1 µg/mL

Compound: CN1C(=O)[C@]23CC4CC(C)(C)[C@@]5(C[C@@]41CN2CC[C@@]3(C)O)C(=O)Nc1c5ccc2c1OC=CC(C)(C)O2 (some centres not stated)
- LD50 [3]: 0.5 mg/kg
- LD50 [4]: < 15 mg/kg

Compound: N=c1sc(-c2ccccn2)nn1-c1c(Cl)cc(Cl)cc1Cl
- IC50 [5]: 3000 nM

Compound: N#Cc1ccnc(-c2nn(-c3c(Cl)cc(C(F)(F)F)cc3Cl)c(=N)s2)c1
- IC50 [5]: 10 nM

Compound: CC[C@@]12C(=O)N(C)[C@@]3(CCC(C)(C)[C@]4(CNc5c4ccc4c5OC=CC(C)(C)O4)C3)CN1CC[C@@]2(C)O
- Lethality (Mus musculus): decreased toxicity

Compound: C/C=C(\C)C(=O)O[C@H]1C[C@@H](OC(C)=O)[C@@]2(C(=O)OC)CO[C@H]3[C@@H](O)[C@@](C)([C@]45O[C@@]4(C)[C@@H]4C[C@H]5O[C@@H]5OC=C[C@@]54O)[C@H]4[C@]1(CO[C@]4(O)C(=O)OC)[C@@H]32 [AZADIRACHTIN A]
- Reduction (Felis catus): 53%

Compound: CC(C(=O)O)c1ccc2c(c1)[nH]c1ccc(Cl)cc12 (configuration not stated) [CARPROFEN]
- bioavailability [6]: ~90%

Compound: C=C(C)[C@H]1C(=O)c2c3c(cc4c5c(n1c24)[C@@]1(C)C(CC[C@H]2[C@](C)(/C=C/C=C(\C)C(=O)O)[C@@H](O)CC[C@@]21C)C5)C1=CC(C)(C)OC(C)(C)C1[C@@H]3O (some centres not stated) [NOD ACID A]
- Efficacy (Canis familiaris [7]): 0%
- Efficacy (Canis familiaris [8]): 97%
- LC50 [9]: 0.68 µg/mL (≈ 1 µM)
- Efficacy (Canis familiaris [10]): 99%
- Efficacy (Canis familiaris [11]): 51%
- Dose (Canis familiaris [12]): 0.006 mg/kg

Compound: C=C(C)[C@H]1C(=O)c2c3c(cc4c5c(n1c24)[C@@]1(C)C(CC[C@H]2[C@](C)(/C=C/C=C(\C)C(=O)N4CCN(S(C)(=O)=O)CC4)[C@@H](O)CC[C@@]21C)C5)C1=CC(C)(C)OC(C)(C)C1[C@@H]3O (some centres not stated) [NODULISPORAMIDE]
- Efficacy (Canis familiaris [13]): 0.01 µg/mL

Compound: COc1ccc2[nH]c([S+]([O-])Cc3ncc(C)c(OC)c3C)nc2c1 (configuration not stated) [OMEPRAZOLE]
- Inhibition (Equus caballus): >90%
